According to ChEMBL document CHEMBL1135215, “Synthesis and cytotoxicity of 3,4-diaryl-2(5H)-furanones” (2002):

Key:
[1] = tested on: A549; assay: Cytotoxic activity against human lung cancer A549 cell line was determined; type: functional; settings: read-out: ED50 (the source's name)
[2] = tested on: Cancer cell lines; assay: Average cytotoxic activity (AC) in three cancer cell lines A549, SK-MEL-2 and MCF-7 was calculated; type: functional, Homo sapiens; set-up: unit not given beside the values
[3] = tested on: MCF7; assay: Cytotoxic activity against human breast cancer MCF-7 cell line was determined; type: functional; settings: read-out: ED50 (the source's name)
[4] = tested on: SK-MEL-2; assay: Cytotoxic activity against human melanoma SK-MEL-2 was determined; type: functional; settings: read-out: ED50 (the source's name)

Compound	EC50 [1] [nM]	AC [2]	EC50 [3] [nM]	EC50 [4] [nM]
COc1cc(-n2c(-c3ccc4c(c3)OCO4)coc2=O)cc(OC)c1OC	64.5	64.5	64.5	64.5
COc1ccc(C2=C(c3cc(OC)c(OC)c(OC)c3)C(=O)OC2)cc1O	16.3	12.6	11.4	10.2
COc1cc(C2=C(c3ccc(N)cc3)COC2=O)cc(OC)c1OC	54.7	45.7	33	49.3
COc1cc(C2=C(c3ccc4c(c3)OCO4)COC2=O)cc(OC)c1OC	100	83.8	80.4	70.8
COc1ccccc1C1=C(c2cc(OC)c(OC)c(OC)c2)C(=O)OC1	> 5000	>5000	> 5000	> 5000
COc1cc([C@@H]2c3cc4c(cc3C[C@H]3COC(=O)[C@@H]32)OCO4)cc(OC)c1OC [DESOXYPODOPHYLLOTOXIN]	15.5	11.9	11.7	8.4
